Data set [1] can be described thus: Equilibrium solubility experiment for biological media and pH buffers. Format: physicochemical. The procedure: The taken samples were centrifuged, the supernatant of the samples was taken and diluted by a proper time after pH was determined, and the concentration of the supernatant was determined by UPLC.
Diluent: acetonitrile:water (1:1)
Mobile phase A: 0.1% aqueous FA solution
Mobile phase B: 0.1% FA ACN/MeOH (1:1) solution
Two parts of control solutions were prepared in parallel, and labeled STD #1 and STD #2, respectively.
The control solution STD #1 was taken and diluted by 1, 5, 10, 100, 1000, 2000 times, and recorded as linear solutions L1, L2, L3, L4, L5 and L6. The sample diluted by 2000 times was recorded as LOQ.

The nature of data set [2]: In vivo pharmacokinetic study in SD rats. The settings on record: rat, plasma, SD male rats, oral, 30 mg/kg. The procedure:
The test compound was mixed with 5% dimethyl sulfoxide/10% polyoxyethylene stearate/85% aqueous solution, and the mixture was vortexed and sonicated to prepare a 3 mg/mL clear solution for later use. SD male rats aged 7 to 10 weeks were selected and orally administered with a dose of the candidate compound at 30 mg/kg. Whole blood was collected at certain time points, and plasma was separated. The drug concentration was measured by LC-MS/MS, and pharmacokinetic parameters were calculated using Phoenix WinNonlin software (Pharsight, USA).

Data set [3] in a line: Study of approximate solubility in water. Format: physicochemical. Particulars: room temperature, dissolution determined by the naked eye. The method, then: About 2.0 mg of samples were weighed and added into 1.5 mL glass vials, water was gradually added using pipetting gun, and the mixture was dissolved by sonication as appropriate. The test was conducted at room temperature and the dissolution was determined by the naked eye, and the approximate solubility results are shown in Table 10.

The nature of data set [4]: Study of solid stability (accelerated conditions, XRPD). Format: physicochemical. The settings on record: 40° C./75% RH 2 and 3 months; 60° C./75% RH 1 and 2 months. The method, then: The samples were placed at (40° C./75% RH) for 2 months and 3 months and at (60° C./75% RH) for 1 month and 2 months, and the placed samples were characterized by XRPD. The test results were compared with the initial test results of 0 days.

A short description of data set [5]: Study of hygroscopicity (25° C., 80% relative humidity, 24 h). Format: physicochemical. The settings on record: relative humidity 80%. An excerpt:
Calculation: weight gain %=(m3−m2)/(m2−m1)×100%

The nature of data set [6]: Study of polycrystalline forms (solution suspension crystallization, XRPD). Format: physicochemical. Particulars: 13 single or mixed solvents of Table 7, stirred 2 days at 50° C. The method, then:
Then, samples of the aforementioned suspensions were stirred for 2 days on a constant-temperature heating stirrer at 50° C. The reaction system was cooled to room temperature, filtered and concentrated to remove the solvent, to give samples, and XRPD testing was performed on the samples.

In brackets after ≈: the same amount, converted by molar mass. Several values for one entry are separate records, joined by “and”; a condition that tells them apart may be missing. Equal entries are not always repeated. Where two headings read alike, the source gives them in different places. Some results are limits rather than exact numbers.

For `COC(=O)N1CCN([C@H]2CC[C@H](Nc3nc(Nc4cnn(C5CCOCC5)c4)nc4snc(C)c34)CC2)CC1`, the solubility at 24 h in data set [1] (aqueous buffer, thermodynamic from solid, pH = 6.00 buffer, 37° C., 24 h, pH (24 h) 5.12, white suspension, read-out: Solubility (mg/mL) _24 hr) was 1.3 mg/mL (≈ 2.34 mM); in data set [1] (pH 1.77, simulated gastric fluid, thermodynamic from solid, SGF, 37° C., 24 h, pH (24 h) 1.77, opalescent and opaque, read-out: Solubility (mg/mL) _24 hr), 10.5 mg/mL (≈ 18.9 mM); in data set [1] (pH 2.00 and pH 3.8 buffers, 37 °C, simulated gastric fluid, thermodynamic from solid, at pH=1.00, pH=2.00, pH=3.8, water and SGF, read-out: solubility), more than 10 mg/mL; in data set [1] (pH 3.8, aqueous buffer, thermodynamic from solid, pH = 3.80 buffer, 37° C., 24 h, pH (24 h) 2.61, opalescent and opaque, read-out: Solubility (mg/mL) _24 hr), 10.2 mg/mL (≈ 18.4 mM); in data set [1] (pH 4.5, aqueous buffer, thermodynamic from solid, pH = 4.50 buffer, 37° C., 24 h, pH (24 h) 4.12, white suspension, read-out: Solubility (mg/mL) _24 hr), 10.3 mg/mL (≈ 18.5 mM); in data set [1] (pH 4.75, thermodynamic from solid, FeSSIF, 37° C., 24 h, pH (24 h) 4.75, white suspension, read-out: Solubility (mg/mL) _24 hr), 1.32 mg/mL (≈ 2.38 mM). The solubility at 24 h in data set [1] (pH 5.5, aqueous buffer, thermodynamic from solid, pH = 5.50 buffer, 37° C., 24 h, pH (24 h) 5.26, white suspension, read-out: Solubility (mg/mL) _24 hr) is 0.31 mg/mL (≈ 0.558 mM); in data set [1] (pH 6.04, thermodynamic from solid, FaSSIF, 37° C., 24 h, pH (24 h) 6.04, white suspension, read-out: Solubility (mg/mL) _24 hr), 0.14 mg/mL (≈ 0.252 mM); in data set [1] (pH 6.8, aqueous buffer, thermodynamic from solid, pH = 6.80 buffer, 37° C., 24 h, pH (24 h) 6.57, white suspension, read-out: Solubility (mg/mL) _24 hr), 0.05 mg/mL (≈ 0.09 mM); in data set [1] (pH 7.4, aqueous buffer, thermodynamic from solid, pH = 7.40 buffer, 37° C., 24 h, pH (24 h) 7.07, white suspension, read-out: Solubility (mg/mL) _24 hr) it was 0.0012 mg/mL (≈ 0.00216 mM); in data set [1] (simulated gastric fluid, thermodynamic from solid, pH = 1.00 buffer, 37° C., 24 h, pH (24 h) 1.11, opalescent and opaque, read-out: Solubility (mg/mL) _24 hr), 10.5 mg/mL (≈ 18.9 mM); in data set [1] (simulated gastric fluid, thermodynamic from solid, pH = 2.00 buffer, 37° C., 24 h, pH (24 h) 1.90, opalescent and opaque, read-out: Solubility (mg/mL) _24 hr), 10.5 mg/mL (≈ 18.9 mM). Also, the solubility at 24 h in data set [1] (water, pH 2.29, water, thermodynamic from solid, H2O, 37° C., 24 h, pH (24 h) 2.29, opalescent and opaque, read-out: Solubility (mg/mL) _24 hr) came out at 9.12 mg/mL (≈ 16.4 mM). Also, the bioavailability in data set [2] (read-out: Bioavailability F (%)) is 62%. Moreover, the AUC(0-t) in data set [2] (read-out: Area under plasma concentration-time curve AUC0-last) was determined as 10.6 µM·h. Also, the Cmax in data set [2] (read-out: Peak concentration Cmax) is 1580 nM. Also, in data set [2] (read-out: Time to peak Tmax), the Tmax was 3 h.
Turning to `COC(=O)N1CCN([C@H]2CC[C@H](Nc3nc(Nc4cnn(C5CCOCC5)c4)nc4snc(C)c34)CC2)CC1` [Compound of formula (I)], the “Approximate solubility” value in data set [3] was less than 1000 µg/mL.
For `COC(=O)N1CCN([C@H]2CC[C@H](Nc3nc(Nc4cnn(C5CCOCC5)c4)nc4snc(C)c34)CC2)CC1` [Crystalline form A of the compound of formula (II)], the “solubility description (Chinese pharmacopoeia)” value in data set [1] (at pH=4.50) is recorded as “minimally soluble”; in data set [1] (at pH=5.00 and FaSSIF), “very slightly soluble”; in data set [1] (at pH=6.00 and FeSSIF) it was “slightly soluble”; in data set [1] (at pH=6.80 and pH=7.40) it was “almost insoluble or insoluble”. Besides, in data set [3], the “Approximate solubility” value was more than 100000 µg/mL. Also, the “crystal form under all stability conditions” value in data set [4] was “unchanged”. Further, the “Determination result (hygroscopicity)” value in data set [5] is “Slightly hygroscopic (0.2% to 2% weight gain)”. For the same compound, in data set [5] (average of two samples), the “Weight gain % Average value” was determined as 1.3%. For the same compound, the Weight gain % in data set [5] (single samples No. 1 and 2) is 1.34% and 1.22%. The “crystalline form after suspension stirring (XRPD)” value in data set [6] is given as “all samples were the crystalline form A of the compound of formula (II)”.

In general, bioavailability refers to the share of a dose that reaches the circulation, judged against a reference dose that is usually intravenous. As a reminder, the Tmax is the time at which the peak concentration occurs.
